Values belong to the compound of their own block, whether it stands above or below them.
Assays:
folic acid receptor = target: T1, folic acid receptor (Homo sapiens, UniProt P15328); test: Blocking of folate receptors: uptake of targeted platform 15 in KB cells with 20-fold excess blocking agent; assay type: cell-based; details: for Blocking of uptake of targeted platform 15 (FIG. 5d, 5e): 20 fold excess of blocking agent (for 13 with respect to folic acid content)
T1 construct: performed using FA-receptor-expressing KB cells (ATCC #CCL-17); host or cells: KB cells
Procedure: (§1) The uptake of the synthesized conjugates was performed using FA-receptor-expressing KB cells (ATCC #CCL-17) as previously described (see, e.g., Thomas et al, J. Med. Chem., 48, 3729-3735, 2005; herein incorporated by reference in its entirety). Cells were maintained in FA-free Roswell Park Memorial Institute-1640 (RPMI 1640) medium supplemented with 10% Fetal Bovine serum (FBS), […] L-glutamine, 100 U/ml penicillin and 100 μg/ml streptomycin in 5% CO2 at 37° C. Cells were planted into 24 wells plate at density 250,000 per well and allowed to reach ˜90% confluent on the day of the experiment. They were rinsed and incubated in serum free medium with conjugates for 1 hour at 37° C. in 5% CO2. In some wells, a 20-fold excess of free folic acid or the folic acid conjugated dendrimer was added 30 minutes prior to the addition of the dendrimer platform for the blocking of folate receptors.
(§2) The cellular fluorescence was quantified on a Beckman-Coulter EPICS-XL MCL flow cytometer, and the data were analyzed using Expo32 software (Beckman-Coulter, Miami, Fla.). Cells were trypsinized, rinsed and suspended in PBS containing 0.1% bovine serum albumin (PBSB). The viable cells were gated, and the mean FL1-fluorescence of 10,000 cells was quantified. Error bars are calculated using the half-peak coefficient of variation (HPCV) (see, e.g., Marie, D.; et al., Biol. Cell 1993, 78, 41-51; herein incorporated by reference in its entirety).
The final set of controls investigated active blocking of the folic acid receptor by either free folic acid (FIGS. 5d and 5f-green) or a folic acid-dendrimer conjugate without a fluorescent dye (13) (FIGS. 5e and 5f-orange) to prevent the specific up-take of the folic acid targeted dendrimer systema A 20 fold excess of blocking agent was employed relative to the targeted platform. For the blocking experiment using the single dendrimer-folic acid conjugate (13), molar equivalence was based on the folic acid content of the sample rather than the dendrimer content. Both blocking agents were evaluated at 30 nM, 100 nM, 300 nM, and 1000 nM. […] While the dendrimer-folic acid conjugate is not as effective at blocking as the free folic acid, approximately 75% blocking is achieved.

[1] = system: FA-receptor-expressing KB cells; test: Cellular uptake of dendrimer conjugates in KB cells measured by flow cytometry; assay type: cell-based, human
Procedure: as §1, §2
Cellular uptake of the folic acid targeted dendrimer system (15) at four different concentrations (30 nM, 100 nM, 300 nM, and 1000 nM of 15) was measured in KB cells that express a high cellular membrane concentration of folic acid receptor (FAR). Fluorescence uptake was quantified by Flow Cytometry.
A series of control experiments were performed in order to ensure that uptake of the folic acid targeted dendrimer system (15) was occurring via receptor-mediated endocytosis and not non-specific membrane interactions. […] The second control sample contained a non-conjugated (un-clicked) mixture of the two dendrimers functionalized with either FITC or folic acid (13 and 14). Uptake of this mixture was quantified at 30 nM, 100 nM, and 300 nM (FIGS. 5c and 5f-teal). […] This control eliminates the possibility that the dendrimer modules could form a non-covalently linked complex that would be internalized. A third control sample (18) was composed of an un-targeted dendrimer module (17) coupled to the FITC conjugated imaging module (14). The un-targeted dual module platform (18) was assembled under the same conditions used to form the folic acid targeted platform (15). […] This un-targeted dendrimer platform control matches the molecular weight and size of the folic acid targeted dendrimer system (15).

T1 sequence (P15328 25-234): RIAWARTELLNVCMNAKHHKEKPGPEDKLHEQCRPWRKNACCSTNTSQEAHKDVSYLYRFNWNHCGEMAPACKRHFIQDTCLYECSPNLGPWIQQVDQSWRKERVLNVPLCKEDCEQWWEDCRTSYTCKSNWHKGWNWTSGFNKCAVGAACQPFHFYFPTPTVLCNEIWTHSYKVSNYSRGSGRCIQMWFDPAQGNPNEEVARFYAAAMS

Blocking of uptake of targeted platform 15 (FIG. 5d, 5e) (folic acid receptor): successfully blocked | Blocking of uptake of targeted platform 15 (folic acid receptor; 20 fold excess, added 30 minutes before, concentrations up to 100 nM): Complete blocking
Compound: Nc1nc2ncc(CNc3ccc(C(=O)N[C@@H](CCC(=O)O)C(=O)O)cc3)nc2c(=O)[nH]1 [free folic acid, folic acid, reference compound]

Compound: FA3.5-G5-Ac107-L-G5-Ac106-FITC3.2 [Compound 15]
Cellular uptake (fluorescence, flow cytometry) ([1]; KB cells, 1 hour at 37° C., 30 nM, 100 nM, 300 nM and 1000 nM): dose dependent uptake | Concentration at which uptake saturates ([1]; KB cells, 1 hour at 37° C., tested at 30-1000 nM): 100 nM | Specific targeting of folic acid receptor in vitro ([1]; human epithelial cancer cell line (KB)): found to specifically target the over-expressed folic acid receptor

Compound: G5-Ac106-Azide2.5-FITC3.2 [Compound 14]
Cellular uptake (FIG. 5b) ([1]; KB cells, 30 nM, 100 nM and 300 nM): not observed | Cellular uptake above the background level ([1]; KB cells, 30 nM, 100 nM, 300 nM and 1000 nM): No uptake was observed | Cellular uptake (FIG. 5b) ([1]; KB cells, 1000 nM): Very minimal uptake

Blocking of uptake of targeted platform 15 (folic acid receptor; 20 fold excess based on folic acid content, evaluated at 30-1000 nM): approximately 75% | Blocking of uptake of targeted platform 15 (FIG. 5d, 5e) (folic acid receptor): successfully blocked
Compound: G5-Ac107-Alkyne1.6-FA3.5 [Compound 13]

Compound: G5-Ac110.7-L-G5-Ac106-FITC3.2 [Compound 18]
Mean fluorescence uptake beyond the background level ([1]; KB cells, concentrations up to 300 nM): no uptake was observed beyond the background level

Reference: patent US20100158850A1, “DENDRIMER BASED MODULAR PLATFORMS” (The Regents of the University of Michigan, priority 2008, published 2010)
